Data published in patent publication US20060100154A1, “Long-acting gonadotropin-releasing hormone analogs and methods of use thereof” (YEDA RESEARCH AND DEVELOPMENT CO, priority 2005, published 2006).
Square brackets hold non-standard residues; d marks the D form. Peptide text beside a SMILES is read from it. * marks the point of attachment. NQ = N-(2-chloro-1,4-naphthoquinonyl)-β-alanine, O=C1C(Cl)=C(NCCC(=O)*)C(=O)c2ccccc21; Glutaryl(OAqm) = O=C(CCCC(=O)*)OCc1ccc2c(c1)C(=O)c1ccccc1C2=O; X1 = O=C1c2cc(O)cc(O)c2C(=O)c2c(O)cc(C(=O)*)cc21; d(pGlu) = O=C1CC[C@H](C(=O)O)N1; pGlu = O=C1CC[C@@H](C(=O)O)N1; Emo = not defined here

How the values were obtained:
[1] = system: human breast and prostate cancer; conditions: literature ref 14; cited from earlier work
[2] = literature ref 14; cited from earlier work
[3] = target: T1, rat pituitary GnRH receptors (Rattus norvegicus, UniProt P30969); test: Displacement binding assay with 125I[D-Lys6]GnRH on rat pituitary membranes; conditions: for increase of binding affinity to GnRH receptors compared to the parent peptide: vs [D-Lys6]GnRH; for binding affinity to GnRH receptors (in words): FIG. 11; for IC50: Table 3, estimated IC50, 125I-[D-Lys6]GnRH tracer
T1 construct: from tissue; host or cells: rat pituitary membranes (Wistar-derived rats)
T1 sequence (P30969 1-327): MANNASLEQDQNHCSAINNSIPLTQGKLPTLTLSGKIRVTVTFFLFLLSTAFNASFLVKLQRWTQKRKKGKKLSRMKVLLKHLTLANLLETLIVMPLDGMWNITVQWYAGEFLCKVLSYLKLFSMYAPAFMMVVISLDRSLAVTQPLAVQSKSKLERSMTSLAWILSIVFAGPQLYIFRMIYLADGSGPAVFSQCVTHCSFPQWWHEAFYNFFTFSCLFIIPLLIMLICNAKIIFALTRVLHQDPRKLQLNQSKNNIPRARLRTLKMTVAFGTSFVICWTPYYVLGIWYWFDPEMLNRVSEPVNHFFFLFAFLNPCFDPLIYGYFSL
Method: Specific binding was calculated by subtracting the non-specific binding from the maximal binding, determined in the absence of any competing peptide. Results are the mean of two experiments carried out in triplicates. SEM values are omitted for clarity (FIG. 3).

[4] = Relative hydrophobicity by elution from RP-18 HPLC column; format: physicochemical; conditions: percent of buffer B in which the analog was eluted from RP-18 column
From the text: All chemicals and reagents were of analytical grade. Rink amide resin, 9-fluorenylmethoxycarbonyl (Fmoc) protected amino acid derivatives, and all the reagents for solid-phase peptide synthesis were purchased from Novabiochem (Läufelfingen, Switzerland). Side-chain protecting groups employed for peptide synthesis were as follows: Arg, 2,2,4,6,7-pentamethyldihydrobenzofuran-5-sulfonyl (Pbf); His, trityl (Trt); D-Lys, 4-methyltrityl (Mtt) or tert-butyloxycarbonyl (Boc); Trp, tert-butyloxycarbonyl (Boc); Ser and Tyr, tert-butyl (tBu). Reversed phase HPLC was performed on a Spectra-Physics SP-8800 liquid chromatography system equipped with an Applied Biosystems 757 variable wavelength absorbance detector. HPLC prepacked columns were: Lichrocart, containing Lichrosorb RP-18 (250×10 mm; 7 μm, Merck, Darmstadt, Germany) for semi-preparative purification and Lichrospher 100 RP-18 (250×4 mm; 5 μm, Merck, Darmstadt, Germany) and wide pore butyl C4 (250×4.6 mm; 5 μm, J. T. Baker Inc., Phillipsburg, N.J.) for analytical purposes. HPLC purification and analysis were achieved by using a linear gradient established between 0.1% trifluoroacetic acid […] in water as buffer A and 0.1% TFA in 75% aqueous acetonitrile as buffer B. Eluent composition was 10-100% B over 40 mlin, using RP-18 column, and a gradient of 0-100% B over 40 min employing a wide pore butyl (C4) column. N-(2noro-1,4-naphtoqumonyl)-β-alanine (NQ), 1,6,8-Trihydroxy-3-carboxylic acid-anthraquinone (Emo) and 2-hydroxymethyl-anthraquinone hemiglutarate (AntrQ) were synthesized as described^14,24,27 (for chemical structure see FIG. 1).

LH release = test: In vivo LH release after intraperitoneal administration; parameters: species or system rat; conditions: 20 nmol/rat
Method: The ability of [D-Lys^6(Emo)]GnRH to bind GnRH receptors and promote LH release in vitro, prompted the evaluation of its in vivo activity.
Blood samples were withdrawn by cardiac puncture under light ether anesthesia at the indicated time intervals, and serum LH levels were determined by RIA as described above (FIG. 6). Results are the mean±SEM of LH concentrations in the serum of five animals/experimental group. The LH concentration was determined using three different dilutions of each serum sample. Similar results were obtained in two other experiments.

[5] = target: T2, human serum albumin (HSA) (Homo sapiens, UniProt P02768); test: Binding to HSA; format: in vitro ADME; conditions: 37° C., 3 h; FIG. 8
T2 construct: purchased Sigma, St. Louis, Mo
Method: The concentration of HSA in the solution was determined using a molar extinction coefficient of 39,000 M^−1 cm^−1 at 277.5 nm^33. The unbound compound was then separated from the HSA solution by applying it on to a Centricon® concentrator column (Amicon Inc., Beverly, Mass.) with a band pass membrane of […] according to the manufacture's protocol. The HSA bound compound (˜20 μL) was then precipitated by adding it to acetonitrile (1 mL). The supernatant was kept and the precipitate was dissolved in PBS (100 μL) and re-precipitated. The combined supernatants were evaporated, the residue was dissolved in water containing 0.1% TFA (buffer A) and analyzed by HPLC to determine the amount of the tested compounds. Results represent the mean of two experiments (FIG. 8).

αT3-1 cells [6] = test: DNA fragmentation assay; format: cell-based, mouse; conditions: 10 μM, FIG. 10
Method: FIG. 10. DNA cleavage in cells treated with [D-Lys^6(Emo)]GnRH and emodic acid. αT3-1 cells were incubated; in darkness with 10 μM of the tested compounds, washed and illuminated. After 24 h of incubation DNA was isolated and analyzed by gel electrophoresis. Lanes 1, 3 and 5 represent DNA of cells treated with 1% DMSO in PBS, emodic acid or [D-Lys^6(Emo)]GnRH, respectively, followed by illumination. Lane 2, 4 and 6 represent cells treated with 1% DMSO in PBS, emodic acid, or [D-Lys^6(Emo)]GnRH, respectively, in darkness.
αT3-1 cells (×10^6/dish) were incubated in phenol red and serum free complete medium (37° C., 5% CO2) with the tested compounds for 5 h in the dark. Cells were then washed with PBS (×3) and illuminated or remained in darkness as described earlier. The media were then replaced by complete medium and cells were incubated for additional 24 h. DNA was then isolated, using Wizard® genomic DNA purification kit (Promega, Madison, Wis.) following the company's protocol and analyzed by gel electrophoresis (0.4% cross linked agarose, ethidium bromide staining).

αT3-1 cells [7] = test: In vitro toxicity / phototoxicity (XTT cell survival); format: cell-based, mouse
Method: αT3-1 cells (50,000 cells/well) were plated in 96-well tissue culture plates in 0.1 mL of complete medium. After 24 h the medium was changed and cells were incubated in the same medium (without serum and phenol red) containing different concentrations of the tested compounds for 4 h at 37° C. The cells were then washed (×3) with PBS and illuminated (λmax=400 nm) in PBS. The fluence rate was 14.3 mW cm^−2 with a total fluence of 17 J cm^−2. Following illumination the media were replaced by complete medium and the plates were incubated for additional 24 h at 37° C. Cell survival was determined using the XTT (Biological Industries, Beit-Haemek, Israel) kit following the manufacture's protocol. Values are expressed as % survival.

[8] = literature ref 5; cited from earlier work
[9] = target: T3, rat pituitary GnRH receptor (rat, UniProt P30969 1-327); test: displacement of 125I[D-Lys6]GnRH from rat pituitary membranes
T3 construct: whole, on cells; Native receptor; also called GnRH receptors; rat pituitary receptors
T3 sequence (looked up): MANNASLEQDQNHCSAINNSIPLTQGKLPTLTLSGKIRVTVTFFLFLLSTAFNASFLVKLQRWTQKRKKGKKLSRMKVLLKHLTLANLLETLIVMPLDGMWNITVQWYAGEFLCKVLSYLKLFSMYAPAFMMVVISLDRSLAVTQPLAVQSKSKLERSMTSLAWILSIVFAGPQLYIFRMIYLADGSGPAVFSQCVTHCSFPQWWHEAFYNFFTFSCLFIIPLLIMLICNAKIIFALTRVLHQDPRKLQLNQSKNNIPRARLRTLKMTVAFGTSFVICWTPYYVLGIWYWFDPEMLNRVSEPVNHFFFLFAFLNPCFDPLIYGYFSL
Method: Briefly, membranes were incubated for 90 min at 4° C. with ¹²⁵I[D-Lys⁶]GnRH and with the unlabeled peptides. Non-specific binding was defined as the residual binding in the presence of excess [D-Lys⁶]GnRH (1 μM). Specific binding was calculated by subtracting the non-specific binding from the maximal binding, determined in the absence of any competing peptide. Results are the mean of two experiments carried out in triplicates. SEM values are omitted for clarity (FIG. 3).

[10] = target: T3, rat pituitary GnRH receptor; test: displacement of 125I[D-Lys6]GnRH from proestrous rat pituitary membranes

T2 sequence (P02768 25-609): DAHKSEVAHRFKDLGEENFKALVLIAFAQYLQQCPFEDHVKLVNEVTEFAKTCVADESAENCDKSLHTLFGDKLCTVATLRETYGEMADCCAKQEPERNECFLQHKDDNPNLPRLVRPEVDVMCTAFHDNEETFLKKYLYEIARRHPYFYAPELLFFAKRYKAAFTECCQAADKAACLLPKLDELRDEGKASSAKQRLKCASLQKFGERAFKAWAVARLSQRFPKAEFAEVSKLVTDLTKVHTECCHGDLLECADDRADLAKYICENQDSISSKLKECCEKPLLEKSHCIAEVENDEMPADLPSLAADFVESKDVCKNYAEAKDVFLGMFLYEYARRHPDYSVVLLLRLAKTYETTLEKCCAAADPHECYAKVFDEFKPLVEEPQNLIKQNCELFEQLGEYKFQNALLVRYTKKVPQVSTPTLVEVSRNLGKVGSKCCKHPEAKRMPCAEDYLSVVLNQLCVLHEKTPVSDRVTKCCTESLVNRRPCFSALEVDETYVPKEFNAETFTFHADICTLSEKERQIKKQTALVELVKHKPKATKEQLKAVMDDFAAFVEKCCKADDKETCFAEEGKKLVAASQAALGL

Molecule: CC(C)C[C@H](NC(=O)[C@@H](CCCCNC(=O)CCCC(=O)OCc1ccc2c(c1)C(=O)c1ccccc1C2=O)NC(=O)[C@H](Cc1ccc(O)cc1)NC(=O)[C@H](CO)NC(=O)[C@H](Cc1c[nH]c2ccccc12)NC(=O)[C@H](Cc1c[nH]cn1)NC(=O)[C@@H]1CCC(=O)N1)C(=O)N[C@@H](CCCNC(=N)N)C(=O)N1CCC[C@H]1C(=O)NCC(N)=O [[D-Lys^6(AntrQ)]GnRH, [D-Lys^6(2-hydroxymethyl-anthra-quinone hemiglutarate)] GnRH]
- growth of human breast and prostate cancer [1]: inhibited the growth
- biological activity relative to the parent peptide [2]: five-fold higher
- increase of binding affinity to GnRH receptors compared to the parent peptide [3]: 5 folds
- Hydrophobicity (% B) [4]: 84 % B

Molecule: CC(C)C[C@H](NC(=O)[C@@H](CCCCNC(=O)c1cc(O)c2c(c1)C(=O)c1cc(O)cc(O)c1C2=O)NC(=O)[C@H](Cc1ccc(O)cc1)NC(=O)[C@H](CO)NC(=O)[C@@H](Cc1c[nH]c2ccccc12)NC(=O)[C@@H](Cc1ccccc1)NC(=O)[C@H]1CCC(=O)N1)C(=O)N[C@@H](CCCNC(=N)N)C(=O)N1CCC[C@H]1C(=O)NCC(N)=O [[D-Lys^6(Emo)]Antg, [D-Pyr^1, D-Phe^2, D-Trp^3, D-Lys^6(Emo)]GnRH] ([d(pGlu)][dF][dW]SY[dK](X1)LRPG-NH2)
- binding affinity to GnRH receptors (in words) [3]: lower binding affinity
- IC50 [3]: 150 nM

Molecule: CC(C)C[C@H](NC(=O)[C@@H](CCCCNC(=O)CCNC1=C(Cl)C(=O)c2ccccc2C1=O)NC(=O)[C@H](Cc1ccc(O)cc1)NC(=O)[C@H](CO)NC(=O)[C@H](Cc1c[nH]c2ccccc12)NC(=O)[C@H](Cc1c[nH]cn1)NC(=O)[C@@H]1CCC(=O)N1)C(=O)N[C@@H](CCCNC(=N)N)C(=O)N1CCC[C@H]1C(=O)NCC(N)=O [[D-Lys^6(NQ)]GnRH, [D-Lys^6(N-(2-chloro-1,4-naphthoquinonyl)-β-alanyl)]GnRH]
- increase of binding affinity to GnRH receptors compared to the parent peptide [3]: 2 folds
- Hydrophobicity (% B) [4]: 59 % B

Molecule: CC(C)C[C@H](NC(=O)[C@@H](CCCCN)NC(=O)[C@H](Cc1ccc(O)cc1)NC(=O)[C@H](CO)NC(=O)[C@@H](Cc1c[nH]c2ccccc12)NC(=O)[C@@H](Cc1ccccc1)NC(=O)[C@H]1CCC(=O)N1)C(=O)N[C@@H](CCCNC(=N)N)C(=O)N1CCC[C@H]1C(=O)NCC(N)=O [[D-Lys^6]Antg, [D-Pyr^1, D-Phe^2, D-Trp^3, D-Lys^6]GnRH] ([d(pGlu)][dF][dW]SY[dK]LRPG-NH2)
- IC50 [3]: 45 nM

Molecule: CC(C)C[C@H](NC(=O)[C@@H](CCCCN)NC(=O)[C@H](Cc1ccc(O)cc1)NC(=O)[C@H](CO)NC(=O)[C@H](Cc1c[nH]c2ccccc12)NC(=O)[C@H](Cc1c[nH]cn1)NC(=O)[C@@H]1CCC(=O)N1)C(=O)N[C@@H](CCCNC(=N)N)C(=O)N1CCC[C@H]1C(=O)NCC(N)=O [[D-Lys^6]GnRH]
- increase in serum LH levels at higher dose (LH release): larger increase in serum LH levels
- Hydrophobicity (% B) [4]: 37 % B

Molecule: O=C(O)c1cc(O)c2c(c1)C(=O)c1cc(O)cc(O)c1C2=O [emodic acid]
- binding to HSA [5]: binds to HSA
- DNA fragmentation in the dark (αT3-1 cells [6]; darkness): did not cause any DNA fragmentation
- DNA fragmentation upon illumination (αT3-1 cells [6]; illuminated): induced DNA fragmentation
- phototoxicity to αT3-1 cells (αT3-1 cells [7]; 10 μM, illuminated, FIG. 9): significant phototoxicity
- toxicity to αT3-1 cells in the dark (αT3-1 cells [7]; incubated in the dark): did not show any toxicity

Molecule: [D-Pyr^1, D-Phe^2, D-Trp^3, D-Lys^6]GnRH ([d(pGlu)][dF][dW]SY[dK]LRPG-NH2; SMILES CC(C)C[C@H](NC(=O)[C@@H](CCCCN)NC(=O)[C@H](Cc1ccc(O)cc1)NC(=O)[C@H](CO)NC(=O)[C@@H](Cc1c[nH]c2ccccc12)NC(=O)[C@@H](Cc1ccccc1)NC(=O)[C@H]1CCC(=O)N1)C(=O)N[C@@H](CCCNC(=N)N)C(=O)N1CCC[C@H]1C(=O)NCC(N)=O)
- binding affinity to GnRH receptors (in words) [3]: lower binding affinity to GnRH receptor as compared to [D-Lys^6]GnRH

Molecule: pGlu-His-Trp-Ser-Tyr-Gly-Leu-Arg-Pro-Gly-NH2 [GnRH]
- half-life time in the general circulation [8]: 2 to 4 min

B1: [D-Lys^6(2-hydroxymethyl-anthraquinone hemiglutarate)]GnRH (peptide)
peptide: [pGlu]HWSY[dK](Glutaryl(OAqm))LRPG-NH2
notes: Quinone conjugate of [D-Lys6]GnRH; also called [D-Lys^6(AntrQ)]GnRH; [D-Lys^6(AntQ)]GnRH
- IC50 [9]: 0.02 nM

B2: [D-Lys^6(N-(2-chloro-1,4-naphthoquinonyl)-β-alanyl)]GnRH (peptide)
peptide: [pGlu]HWSY[dK](NQ)LRPG-NH2
notes: Quinone conjugate of [D-Lys6]GnRH; also called [D-Lys^6(NQ)]GnRH
- IC50 [9]: 0.09 nM

B3: [D-Lys^6(1,3,8-trihydroxy-6-carboxy-anthraquinone)]GnRH (peptide)
peptide: [pGlu]HWSY[dK](Emo)LRPG-NH2
modifications: not fully specified; printed as [D-Lys^6(1,3,8-trihydroxy-6-carboxy-anthraquinone)]GnRH; reading uncertain
notes: Emodic acid conjugate of [D-Lys6]GnRH, an agonist; also called [D-Lys^6(Emo)]GnRH; [D-(Emo)]GnRH
- IC50 [10]: 2.6 nM
- IC50 [9]: 0.25 nM
